# Test results: patent US20150344426A1, “COMPOUNDS AND THERAPEUTIC USES THEREOF” (ALZHEIMER'S INSTITUTE OF AMERICA, INC., priority 2012, published 2015)
# Where “and” joins values, the source holds several entries; their conditions need not be identical. Equal values may be shown once.
# Key:
# [1] = Stability in mouse liver microsomal preparations; assay type: in vitro ADME; settings: liver microsomes, with and without 1 mM NADPH (not said which), read-out: Mouse Liver Microsomes t1/2
# Procedure: Relative stability of Example Compound Nos. 1 through 60 in mouse plasma and mouse liver microsomal preparations.
# Certain Example Compounds were each added to a final concentration of 1 μM to 1 mL of each of mouse plasma and mouse liver microsomal preparations (with and without 1 mM NADPH). Stability assays were run in duplicate and were sampled at 0, 5, 15, 30, 60 and 120 minutes as follows: one hundred microliter aliquots of samples were removed at the specified sampling times, and the reaction was quenched with 400 μL of acetonitrile.
# Samples were analyzed by HPLC-ESI-MS/MS by measuring the peak area of both the starting Example Compound and parent compound (i.e., either Parent Compound A or Parent Compound B) that were created by removal of the Prodrug Moiety (as defined in Section 6 herein).
# [2] = system: HT1080 human fibrosarcoma cancer cells; assay: Anti-tumor activity in HT1080 human fibrosarcoma xenograft with twice daily dosing; assay type: in vivo; settings: for MTV increase / tumor growth inhibition relative to vehicle: 6 mg/kg twice daily for 8 days; for MTV decrease / tumor regression: 12 mg/kg twice daily for 8 days
# Method in brief: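 Female nude mice (Crl:NU-Fox1^nu) bearing s.c. flank tumors from 1 million HT1080 cells, randomized into cohorts of ten at median tumor volumes about 82–209 mm^3. Dosing twice daily for 7 days; tumor volumes and body weights tracked from Day 1 to Days 15–22.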
# [3] = Experiment 1: hepatic portal vein samples of rats after oral Example Compound 35; assay type: in vivo, female Sprague-Dawley rats
# Text: It is believed that Example Compound 35 metabolizes in vivo into Parent Compound A (i.e., it is believed that Example Compound 35 is a prodrug of Parent Compound A). The objective of this study was to determine the concentration of Example Compound 35 and Parent Compound A in hepatic portal vein samples of female Sprague-Dawley rats following oral administration of only Example Compound 35, and to quantify the extent of transport into hepatic portal circulation, if any, of Example Compound 35. A second objective was to determine the relative bioavailability of Parent Compound A in the portal vein following oral administration of Example Compound 35.
# Experiment 1. Three female Sprague Dawley rats (200-215 g, Harlan Laboratories, Indianapolis, Ind.) with cannulae implanted surgically in the portal vein for blood sampling were used in this study. Example Compound 35, formulated in 50 mM Glycine pH 3.0 with 0.5% HPMC and 0.05% Tween-80, was administered by oral gavage (PO) at a dose of 20 mg/kg in a volume of 2 mL/kg. This dose is the molar equivalent of a 13.5 mg/kg dose of Parent Compound A. Portal blood samples were collected through the portal vein cannula from each animal at 0.25, 0.5, 1, 2, 4, and 8 hours following administration of compound. Samples were split into two fractions and one was supplemented with citrate buffer (final concentration 100 mM, pH 3.0) to stabilize Example Compound 35 and stop conversion of Example Compound 35 to Parent Compound A ex vivo during analysis. Samples were then processed to generate plasma and analyzed for Example Compound 35 by LC-MS/MS. Plasma derived from the second aliquot of blood was analyzed for Parent Compound A.
# Pharmacokinetic parameters estimated for Parent Compound A included the maximum observed drug concentration (Cmax), time of maximum observed drug concentration (Tmax), apparent terminal half-life (t1/2), area under the concentration-time curve from time zero to 8 hours postdose (AUC(0-8)), and area under the concentration-time curve extrapolated to infinity (AUC(0-inf)). The bioavailability (% F) of Parent Compound A in portal vein samples relative to IV administration was also estimated.
# Plasma samples were analyzed for Example Compound 35 or Parent Compound A concentration using a LC-MS/MS method. All sample runs met standard acceptance criteria for discovery purposes, and were based on a standard curve containing at least 7 points. At least half of quality control samples at each of the three concentrations tested, and two thirds of the entire quality control sample pool, were within 15% of their theoretical value. The r^2 value for each standard curve was ≧0.99. The quantitation range for the Example Compound 35 and Parent Compound A assays was 1 to 100 ng/mL and 5 to 2,500 ng/mL, respectively, using a 0.05 mL sample volume.
# The data were entered into the PK software package WinNonlin® version 5.1.1. A complete data check was conducted to verify the accuracy of data entry.
# Pharmacokinetic parameters were estimated on median plasma concentrations using extravascular input (PO). Nominal collection times after administration of compound were used for PK analyses. The use of a non-compartmental model provided an adequate fit of the data. Pharmacokinetic parameters estimated for Parent Compound A included the maximum observed drug concentration (Cmax), time of maximum observed drug concentration (Tmax), apparent terminal half-life (t1/2), apparent volume of distribution (Vz obs), apparent clearance (C1 obs), area under the concentration-time curve from time zero to 8 hours postdose of Example Compound 35 […], and area under the concentration-time curve extrapolated to infinity (AUC(0-inf)). Example Compound 35 was detected in only one 0.25 hour hepatic portal vein sample at 1.29 ng/mL. Any Example Compound 35 present in all of the other samples was below the quantitation limit of 1 ng/mL and pharmacokinetic parameters were not determined for those samples. […]
# [4] = female rats, orally at 20 mg/kg
structure (smiles),measurement,setting,value
"O=C(NCc1ccc[n+](COC(=O)c2ccccc2)c1)Nc1ccc(OCCc2ccccc2-c2ccccc2)cc1 [Example 35, 1-[(Benzoyloxy)methyl]-3-{[({4-[2-(biphenyl-2-yl)ethoxy]phenyl}carbamoyl)amino]methyl} pyridinium]",half-life at 1 µM,[1],< 5 min
same,MTV increase,[2]; Day 9,31%
same,tumor growth inhibition relative to vehicle,[2]; Day 9,87%
same,MTV increase,[2]; Day 21,2245%
same,tumor growth inhibition relative to vehicle,[2]; Day 21,78%
same,MTV decrease,[2]; Day 9,81%
same,tumor regression,[2]; Day 9,80%
same,MTV decrease,[2]; Day 21,33%
same,tumor regression,[2]; Day 21,33%
same,animals with no detectable tumors by the end of the study,"[2]; Example Compound 35 study, 12 mg/kg, cohort of ten",Four
same,animals euthanized,"[2]; Example Compound 35 study, 6 and 12 mg/kg",No animals
same,anti-tumor activity in the HT1080 xenograft model (summary statement),"[2]; administered orally, twice daily, all doses tested",significant anti-tumor activity
same,maximal reduction in median body weight,"[2]; over the course of the study, all doses tested, orally twice daily",< 15 % of the initial weight
same,Tolerability,"[2]; xenograft mice, all doses tested, orally twice daily",well tolerated
same,Conversion to Parent Compound A following oral administration,[3]; [4],rapidly converted
same,Transport of Example Compound 35 into the hepatic portal vein,[3]; [4],not significantly transported
same,concentration at 1 h,"[3]; female, Sprague-Dawley, rat, plasma (hepatic portal vein), po, 20 mg/kg, portal vein, 1 hr after oral Example Compound 35 20 mg/kg, individual rats, * = below the quantitation limit of 1 ng/mL, read-out: [Ex. Cmp. 35]",0.24 ng/mL
same,concentration at 2 h,"[3]; female, Sprague-Dawley, rat, plasma (hepatic portal vein), po, 20 mg/kg, portal vein, 2 hr after oral Example Compound 35 20 mg/kg, individual rats, * = below the quantitation limit of 1 ng/mL, read-out: [Ex. Cmp. 35]",0.15 ng/mL
same,concentration at 4 h,"[3]; female, Sprague-Dawley, rat, plasma (hepatic portal vein), po, 20 mg/kg, portal vein, 4 hr after oral Example Compound 35 20 mg/kg, individual rats, * = below the quantitation limit of 1 ng/mL, read-out: [Ex. Cmp. 35]",0.13 ng/mL
same,Example Compound 35 present in all of the other portal vein samples,"[3]; oral 20 mg/kg, all samples other than one 0.25 hour sample, quantitation limit",< 1 ng/mL
same,[Ex. Cmp. 35],"[3]; portal vein, 0.25 hr after oral Example Compound 35 20 mg/kg, individual rats, * = below the quantitation limit of 1 ng/mL, 20 mg/kg",1.29 ng/mL
same,[Ex. Cmp. 35],"[3]; portal vein, 0.25 hr after oral Example Compound 35 20 mg/kg, individual rats, * = below the quantitation limit of 1 ng/mL, listed as Ex. Cmp. 35, 20 mg/kg",0.38* ng/mL and 1.3 ng/mL and 0.75* ng/mL
same,[Ex. Cmp. 35],"[3]; portal vein, 0.5 hr after oral Example Compound 35 20 mg/kg, individual rats, * = below the quantitation limit of 1 ng/mL, listed as Ex. Cmp. 35, 20 mg/kg",0.8* ng/mL and 0.32* ng/mL and 0.4* ng/mL
same,[Ex. Cmp. 35],"[3]; portal vein, 1 hr after oral Example Compound 35 20 mg/kg, individual rats, * = below the quantitation limit of 1 ng/mL, listed as Ex. Cmp. 35, 20 mg/kg",0.38* ng/mL and 0.29* ng/mL
same,[Ex. Cmp. 35],"[3]; portal vein, 2 hr after oral Example Compound 35 20 mg/kg, individual rats, * = below the quantitation limit of 1 ng/mL, listed as Ex. Cmp. 35, 20 mg/kg",0.3* ng/mL and No Peak
same,[Ex. Cmp. 35],"[3]; portal vein, 4 hr after oral Example Compound 35 20 mg/kg, individual rats, * = below the quantitation limit of 1 ng/mL, listed as Ex. Cmp. 35, 20 mg/kg",No Peak and 0.13* ng/mL
same,[Ex. Cmp. 35],"[3]; portal vein, 8 hr after oral Example Compound 35 20 mg/kg, individual rats, * = below the quantitation limit of 1 ng/mL, listed as Ex. Cmp. 35, 20 mg/kg",No Peak and 0.16* ng/mL and 0.07* ng/mL
